These results are taken from publication PMC11255275, “Structural insights into the triple agonism at GLP-1R, GIPR and GCGR manifested by retatrutide” (Cell Discovery, 2024).

In assay [1] the target is T1, GCGR mutants (Homo sapiens, UniProt P47871, W215A).
T1 construct: expressed in transfected cells; host or cells: HEK-293T
Nature of the assay: cAMP accumulation, single-point mutated GCGR. It counts as cell-based. Conditions: GCGR W215(ECL1)A, HEK-293T, 40 min, TR-FRET, mean ± S.E.M., n at least 3. How it is done:
(§1) HEK-293T cells were maintained at 37°C in 5% CO2 incubator and seeded onto 6-well cell […]
(§2) culture plates before transfection. After overnight culture, the cells were transiently transfected […]
(§3) with various constructs using Lipofectamine 2000 transfection reagent (Invitrogen). After 24 h, […]
(§4) the transfected cells were seeded onto 384-microtiter plates at a density of 3,000 cells per well […]
(§5) in stimulation buffer (HBSS supplemented with 5 mM HEPES, 0.1% (w/v) casein and 0.5 mM […]
(§6) 3-isobutyl-1-methylxanthine). Different concentrations of retatrutide in stimulation buffer were […]
(§7) added, and the stimulation lasted for 40 min. The reaction was stopped by addition of cAMP […]
(§8) detection buffer containing Eu-cAMP tracer and ULight-anti-cAMP. Plates were then incubated for […]
(§9) 60 min at RT. Time-resolved FRET signals were measured at 620 nm and 665 nm, respectively, by […]
(§10) an EnVision multilabel plate reader (PerkinElmer). Data were analyzed in GraphPad PRISM 9.5 […]
(§11) and all values were normalized to that of the wild-type (WT).
(§12) Supplementary Fig. 5 Effects of receptor mutation on retatrutide-induced cAMP […]
(§13) accumulation. a-c, Signaling profiles of GLP-1R (a), GIPR (b) and GCGR (c) mutants. cAMP […]
(§14) accumulation was measured in wild-type (WT) and single-point mutated GLP-1R, GIPR or […]
(§15) GCGR expressing HEK-293T cells. cAMP levels were normalized to the maximum response […]
(§16) of the WT and dose-response curves were analyzed using a three-parameter logistic equation.
(§17) Data were generated and graphed as means ± S.E.M. of at least three independent experiments performed in quadruplicate.
(§18) (1 picture or pasted object on this page, not shown here)
(§19) Supplementary Ta b l e S 5 Effects of the ligand-binding pocket residue mutation on retatrutide- […]
(§20) induced cAMP signaling at GLP-1R, GIPR or GCGR. […]
(§21) cAMP levels were normalized to the maximum response of the wild-type (WT) and dose-response […]
(§22) curves were analyzed using a three-parameter logistic equation to obtain pEC50 and Emax values. The […]
(§23) experiments were carried out independently at least three times. Data shown are means ± S.E.M. One- […]
(§24) way ANOVA was used to determine statistical difference. N.D., values that could not be determined due […]
(§25) to incomplete curve fits. *P< 0.05, **P< 0.01, ***P< 0.001 and ****P<0.0001.
For orientation: Changes in cAMP serve as a functional read-out for many G protein-coupled receptors.

Assay [2] concerns the target T2, GCGR mutants (Homo sapiens, UniProt P47871, E362A).
T2 construct: expressed in transfected cells; host or cells: HEK-293T
Nature of the assay: cAMP accumulation, single-point mutated GCGR. Conditions: GCGR E362(6.53b)A, HEK-293T, 40 min, TR-FRET, mean ± S.E.M., n at least 3. It counts as cell-based. How it is done:
as §1, §2, §3, §4, §5, §6, §7, §8, §9, §10, §11, §12, §13, §14, §15, §16, §17, §18, §19, §20, §21, §22, §23, §24, §25

T2 sequence (P47871 26-477 E362A): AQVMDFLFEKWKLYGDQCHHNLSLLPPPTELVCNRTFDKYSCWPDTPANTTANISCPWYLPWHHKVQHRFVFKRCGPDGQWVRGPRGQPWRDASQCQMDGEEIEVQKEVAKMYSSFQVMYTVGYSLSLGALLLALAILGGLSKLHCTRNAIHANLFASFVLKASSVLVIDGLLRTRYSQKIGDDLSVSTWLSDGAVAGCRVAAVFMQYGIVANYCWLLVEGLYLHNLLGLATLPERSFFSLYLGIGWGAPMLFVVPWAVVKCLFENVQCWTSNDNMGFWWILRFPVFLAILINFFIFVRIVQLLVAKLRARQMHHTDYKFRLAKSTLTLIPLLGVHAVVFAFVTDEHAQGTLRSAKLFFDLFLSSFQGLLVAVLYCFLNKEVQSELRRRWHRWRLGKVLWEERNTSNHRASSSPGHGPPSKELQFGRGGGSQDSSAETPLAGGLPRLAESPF
T1 sequence (P47871 26-477 W215A): as the sequence (P47871 26-477 E362A) above, with W190A, A337E counted along it

One may read the EC50 as the concentration at which the effect is half-maximal. Read a low EC50 as an effect from little substance. Regarding `CC[C@H](C)[C@H](NC(=O)[C@H](Cc1ccccc1)NC(=O)[C@H](C)NC(=O)C(C)(C)NC(=O)[C@H](CCC(N)=O)NC(=O)[C@H](C)NC(=O)[C@H](CCCCNC(=O)COCCOCCNC(=O)CC[C@H](NC(=O)CCCCCCCCCCCCCCCCCCC(=O)O)C(=O)O)NC(=O)[C@H](CCCCN)NC(=O)[C@H](CC(=O)O)NC(=O)[C@H](CC(C)C)NC(=O)[C@](C)(CC(C)C)NC(=O)[C@@H](NC(=O)[C@H](CO)NC(=O)[C@H](Cc1ccc(O)cc1)NC(=O)[C@H](CC(=O)O)NC(=O)[C@H](CO)NC(=O)[C@@H](NC(=O)[C@H](Cc1ccccc1)NC(=O)[C@@H](NC(=O)CNC(=O)[C@H](CCC(N)=O)NC(=O)C(C)(C)NC(=O)[C@@H](N)Cc1ccc(O)cc1)[C@@H](C)O)[C@@H](C)O)[C@@H](C)CC)C(=O)N[C@@H](CCC(=O)O)C(=O)N[C@@H](Cc1ccc(O)cc1)C(=O)N[C@@H](CC(C)C)C(=O)N[C@@H](CC(C)C)C(=O)N[C@@H](CCC(=O)O)C(=O)NCC(=O)NCC(=O)N1CCC[C@H]1C(=O)N[C@@H](CO)C(=O)N[C@@H](CO)C(=O)NCC(=O)N[C@@H](C)C(=O)N1CCC[C@H]1C(=O)N1CCC[C@H]1C(=O)N1CCC[C@H]1C(=O)N[C@@H](CO)C(N)=O` [retatrutide], the “Emax ± S.E.M. (% WT)” value on GCGR mutants [1] turned out to be 101.34 ± 2.03 % WT; at GCGR mutants [2], 100.39 ± 2.54 % WT. Further, the EC50 on GCGR mutants [1] (****P < 0.0001) and on GCGR mutants [2] (****P < 0.0001) was 0.0661 nM in each case.
